Source: patent US12559529B2, “NPY2 receptor agonists” (Boehringer Ingelheim International GmbH, priority 2019, dated 2026)

Columns and labels:
human NPY1 receptor = biological target: T1, human NPY1 receptor (Homo sapiens, UniProt P25929); assay: HTRF cAMP Gi assay, hY1R; type: cell-based; conditions: Table 4; CHO-K1 cells
T1 construct: expressed in transfected cells; host or cells: CHO-K1
T1 sequence (P25929 1-384): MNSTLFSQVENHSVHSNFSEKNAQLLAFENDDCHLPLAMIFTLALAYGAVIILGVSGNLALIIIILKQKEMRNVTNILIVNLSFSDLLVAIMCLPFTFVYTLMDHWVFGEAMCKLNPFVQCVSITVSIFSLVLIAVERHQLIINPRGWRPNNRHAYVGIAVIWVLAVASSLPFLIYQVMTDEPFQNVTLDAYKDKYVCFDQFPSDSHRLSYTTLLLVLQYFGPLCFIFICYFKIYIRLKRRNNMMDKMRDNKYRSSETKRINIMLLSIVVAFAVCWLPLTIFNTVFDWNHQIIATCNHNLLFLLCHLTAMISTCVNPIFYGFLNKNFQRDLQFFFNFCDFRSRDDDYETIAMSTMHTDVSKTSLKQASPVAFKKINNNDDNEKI
Protocol: (§1) Briefly, the production of intracellular cAMP will generate a competition between unlabeled cAMP and exogenously added d2-cAMP for anti-cAMP antibodies conjugated to cryptate. CHO-K1 cells stably expressing the human NPY1, NPY2, NPY4 and NPY5 receptors were used with the cells brought to life from a frozen stock immediately before assay performance. 2000 cells per well were applied for all four NPY receptor subtype assays. A 384-well format was used applying a total volume of 20 μl using 5 μl cells, 2.5 μl peptide agonist, 2.5 μl forskolin and 5 μl of each of the fluorophores. […] Concentration-response evaluation of compounds was performed with 11 concentrations of agonist peptides (covering 3 decades). EC50 values were calculated by nonlinear regression using sigmoid concentration-response with variable slope.

human NPY4 receptor = biological target: T2, human NPY4 receptor (Homo sapiens, UniProt P50391); assay: HTRF cAMP Gi assay, hY4R; type: cell-based; conditions: Table 4; CHO-K1 cells
T2 construct: expressed in transfected cells; host or cells: CHO-K1
T2 sequence (P50391 whole entry): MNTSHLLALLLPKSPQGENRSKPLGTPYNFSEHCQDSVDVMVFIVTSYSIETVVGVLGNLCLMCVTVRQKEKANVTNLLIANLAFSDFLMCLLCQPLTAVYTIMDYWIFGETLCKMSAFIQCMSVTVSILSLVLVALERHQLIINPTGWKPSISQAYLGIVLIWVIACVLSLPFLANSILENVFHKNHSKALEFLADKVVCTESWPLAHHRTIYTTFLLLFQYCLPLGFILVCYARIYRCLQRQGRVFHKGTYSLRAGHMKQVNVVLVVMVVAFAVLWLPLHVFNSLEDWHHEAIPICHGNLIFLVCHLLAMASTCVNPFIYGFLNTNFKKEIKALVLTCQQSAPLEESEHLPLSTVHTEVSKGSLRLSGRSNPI
From the text: The Homogenous Time Resolved fluorescence (HTRF) technology optimized for Gi coupled receptors has thoroughly been described in Cisbio cAMP Gi kit manual. Briefly, the production of intracellular cAMP will generate a competition between unlabeled cAMP and exogenously added d2-cAMP for anti-cAMP antibodies conjugated to cryptate. CHO-K1 cells stably expressing the human NPY1, NPY2, NPY4 and NPY5 receptors were used with the cells brought to life from a frozen stock immediately before assay performance. 2000 cells per well were applied for all four NPY receptor subtype assays. A 384-well format was used applying a total volume of 20 μl using 5 μl cells, 2.5 μl peptide agonist, 2.5 μl forskolin and 5 μl of each of the fluorophores. […] Concentration-response evaluation of compounds was performed with 11 concentrations of agonist peptides (covering 3 decades). EC50 values were calculated by nonlinear regression using sigmoid concentration-response with variable slope.

normal NMRI mice = assay: Effect on acute food intake in normal NMRI mice; type: in vivo; conditions: male NMRI mice, 10 nmol/kg subcutaneously once
How it was run: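 A single 10 nmol/kg s.c. peptide dose was given 1 h before lights-off to male NMRI mice fasted from 6 h before the night phase (n=7-8). Intake was recorded continuously by microchip-identified HM-2 feeding channels. Values are normalized to vehicle controls (50 mM phosphate buffer pH7 with 5% Mannitol).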

human NPY2 receptor = biological target: T3, human NPY2 receptor (Homo sapiens, UniProt P49146); assay: HTRF cAMP Gi assay, hY2R
T3 sequence (P49146 1-381): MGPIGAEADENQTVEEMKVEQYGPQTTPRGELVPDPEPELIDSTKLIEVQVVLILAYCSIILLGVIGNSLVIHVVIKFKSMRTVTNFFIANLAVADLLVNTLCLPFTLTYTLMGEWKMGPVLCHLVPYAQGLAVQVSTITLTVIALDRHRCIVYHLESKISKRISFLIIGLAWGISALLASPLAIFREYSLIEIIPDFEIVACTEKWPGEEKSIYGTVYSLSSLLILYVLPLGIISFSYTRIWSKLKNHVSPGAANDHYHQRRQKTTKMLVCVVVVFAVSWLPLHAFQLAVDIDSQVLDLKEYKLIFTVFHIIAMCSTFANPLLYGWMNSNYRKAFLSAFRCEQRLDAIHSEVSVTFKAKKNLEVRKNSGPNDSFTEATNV
Protocol: as §1

human NPY5 receptor = biological target: T4, human NPY5 receptor (Homo sapiens, UniProt Q15761); assay: HTRF cAMP Gi assay, hY5R
T4 sequence (Q15761 1-445): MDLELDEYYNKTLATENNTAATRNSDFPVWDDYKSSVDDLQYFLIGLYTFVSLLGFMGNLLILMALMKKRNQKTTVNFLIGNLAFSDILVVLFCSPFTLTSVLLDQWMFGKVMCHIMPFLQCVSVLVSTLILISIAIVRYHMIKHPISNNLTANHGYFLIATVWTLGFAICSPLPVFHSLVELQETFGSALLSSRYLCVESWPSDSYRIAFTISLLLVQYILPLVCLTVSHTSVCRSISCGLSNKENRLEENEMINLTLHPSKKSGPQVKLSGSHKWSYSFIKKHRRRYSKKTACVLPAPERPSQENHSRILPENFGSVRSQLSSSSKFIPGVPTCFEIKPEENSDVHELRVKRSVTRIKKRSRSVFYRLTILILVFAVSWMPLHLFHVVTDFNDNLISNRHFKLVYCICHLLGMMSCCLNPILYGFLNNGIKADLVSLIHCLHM

[1] = biological target: T5, Human Neuropeptide Y2 Receptor (Homo sapiens, UniProt P49146); assay: Activity (RLB) after incubation in solutions at different pH values; type: binding; conditions: apparent Ki of filtrate after 2 h in buffer, pH6.1-6.2, assumed 10 mg/ml; read-out: RLB 6 (pH6.1-6.2)
T5 construct: purchased CHEMICON HTS066M
T5 sequence (P49146 1-381): T3 sequence (P49146 1-381)
Protocol: The filtration RLB assay was carried out in 96-well plates in a final volume of 100 μl per well. Freeze-dried test peptides were dissolved in 100% dimethyl sulfoxide (DMSO) to stock solutions of 1 mM and serial dilutions were performed in assay buffer (50 mM HEPES, 5 mM MgCl2, 1 mM CaCl2), pH 7.4) containing 0.2% ovalbumin. […] Next, 80 μL membranes (HTS066M, ChemiSCREEN™ Human Neuropeptide Y2 Receptor Membrane Preparation, CHEMICON) were added to each well to give a final protein concentration of 0.5 μg/well. The plates were sealed and incubated at room temperature for 2 hours in a plate shaker set at 400 rpm. The incubation was stopped by vacuum filtration onto 0.5% poly-ethylene amine (PEI) presoaked GF/C filters using a 96-well FilterMate™ harvester (Perkin Elmer) followed by four washes with 300 μl/well ice-cold wash buffer (50 mM HEPES, 500 mM NaCl, pH7.4). Filter plates were then dried for 60 min at room temperature and the bottom of the plates was sealed with backing tape UniFilter-96. Finally, 50 μl/well scintillation counter cocktail (Microscint20, Packard) was added and the radioactivity was counted in the Packard TopCount NXT scintillation counter. IC50 values (the half maximal inhibitory concentration of the agonist) were calculated by nonlinear regression analysis of sigmoidal dose-response curves.
Peptides (as TFA salts) were weighed out in a filter unit (Mini-UniPrep Syringeless Filter 0.45 μm, Whatman), and 0.1 M sodium diphosphate buffer at pH 6.4 or 7.4, respectively, or 0.2 M TRIS buffer at pH 8.3 was added to achieve 10 mg/ml final concentration. The peptide was (partially) dissolved by shaking the filter unit horizontally at approx. 400 rpm for 2 hours at room temperature. The sample was filtered to remove any insoluble particles.

[2] = biological target: T5, Human Neuropeptide Y2 Receptor; assay: Radioligand binding competition assay (RLB); conditions: Table 3; human 125I-PYY (1-36) 0.02 nM, Y2 receptor membranes; read-out: Ki
How it was run: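 Filtration format; Y2R membrane prep 0.5 μg/well; buffer 50 mM HEPES/5 mM MgCl2/1 mM CaCl2/0.2% ovalbumin pH 7.4; 2 h RT, shaking. Harvest on PEI-soaked GF/C, ice-cold HEPES/500 mM NaCl washes, scintillation count. IC50 by nonlinear fit.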

SMILES	EC50 (human NPY1 receptor)	EC50 (human NPY4 receptor)	Acute Food Intake 24 h [% vehicle] (normal NMRI mice)	EC50 (human NPY2 receptor)	EC50 (human NPY5 receptor)	Ki [1]	Ki [2]
CC[C@H](C)[C@H](NC(=O)[C@H](CCC(=O)O)NC(=O)[C@H](CCC(=O)O)NC(=O)[C@@H]1CCCN1C(=O)[C@H](CO)NC(=O)[C@H](C)NC(=O)[C@H](CC(=O)O)NC(=O)[C@H](CCC(=O)O)NC(=O)[C@H](CCC(=O)O)NC(=O)[C@@H]1CCCN1C(=O)[C@H](CCCCNC(=O)COCCOCCNC(=O)COCCOCCNC(=O)CC[C@H](NC(=O)CCCCCCCCCCCCCCCCC(=O)O)C(=O)O)NC(=O)[C@H](CCC(=O)O)NC(=O)[C@@H]1CCCN1C(=O)[C@H](C)NC(=O)CC(C)C)C(=O)N[C@@H](CCC(N)=O)C(=O)N[C@@H](CCC(N)=O)C(=O)N[C@@H](Cc1ccc(O)cc1)C(=O)N[C@@H](Cc1ccc(O)cc1)C(=O)N[C@H](C(=O)N[C@@H](CO)C(=O)N[C@@H](CC(C)C)C(=O)N[C@@H](CCCNC(=N)N)C(=O)N[C@@H](Cc1c[nH]cn1)C(=O)N[C@@H](Cc1ccc(O)cc1)C(=O)N[C@@H](Cc1ccc(O)cc1)C(=O)N[C@@H](CC(N)=O)C(=O)N[C@@H](Cc1c[nH]c2ccccc12)C(=O)N[C@@H](CC(C)C)C(=O)N[C@H](C(=O)N[C@@H](CCCNC(=N)N)C(=O)N[C@@H](CCC(N)=O)C(=O)N[C@@H](CCCNC(=N)N)C(=O)N[C@@H](Cc1ccc(O)cc1)C(N)=O)[C@@H](C)O)C(C)C [Compound 11, N{alpha-4}-(3-methylbutanoyl)-N{epsilon-7}-[2-(2-{2-[2-(2-{2-[(4S)-4-carboxy-4-(17-carboxyheptadecanamido)butanamido]ethoxy}ethoxy)acetamido]ethoxy}ethoxy)acetamido]-[4A,7K,9E,17I,18Q,19Q,22V,28Y,30W,31L]hPYY (4-36)]	> 5 µM	> 5 µM	42 % vehicle	0.000334 µM	> 5 µM	–	–
CC[C@H](C)[C@H](NC(=O)[C@H](CCC(=O)O)NC(=O)[C@H](CCC(=O)O)NC(=O)[C@@H]1CCCN1C(=O)[C@@H](NC(=O)[C@H](C)NC(=O)[C@H](CC(=O)O)NC(=O)[C@H](CCC(=O)O)NC(=O)[C@H](CCC(=O)O)NC(=O)[C@@H]1CCCN1C(=O)[C@H](CCCCNC(=O)COCCOCCNC(=O)COCCOCCNC(=O)CC[C@H](NC(=O)CCCCCCCCCCCCCCCCC(=O)O)C(=O)O)NC(=O)[C@H](CCC(=O)O)NC(=O)[C@@H]1CCCN1C(=O)[C@H](C)NC(=O)CC(C)C)[C@@H](C)O)C(=O)N[C@@H](CCC(N)=O)C(=O)N[C@@H](CCCNC(=N)N)C(=O)N[C@@H](Cc1ccc(O)cc1)C(=O)N[C@@H](Cc1ccc(O)cc1)C(=O)N[C@H](C(=O)N[C@@H](CO)C(=O)N[C@@H](CC(C)C)C(=O)N[C@@H](CCCNC(=N)N)C(=O)N[C@@H](Cc1c[nH]cn1)C(=O)N[C@@H](Cc1ccc(O)cc1)C(=O)N[C@@H](Cc1ccc(O)cc1)C(=O)N[C@@H](CC(N)=O)C(=O)N[C@@H](Cc1c[nH]c2ccccc12)C(=O)N[C@@H](CC(C)C)C(=O)N[C@H](C(=O)N[C@@H](CCCNC(=N)N)C(=O)N[C@@H](CCC(N)=O)C(=O)N[C@@H](CCCNC(=N)N)C(=O)N[C@@H](Cc1ccc(O)cc1)C(N)=O)[C@@H](C)O)C(C)C [Compound 171, N{alpha-4}-(3-methylbutanoyl)-N{epsilon-7}-[2-(2-{2-[2-(2-{2-[(4S)-4-carboxy-4-(17-carboxyheptadecanamido)butanamido]ethoxy}ethoxy)acetamido]ethoxy}ethoxy)acetamido]-[4A,7K,9E,13T,17I,18Q,22V,28Y,30W,31L]hPYY (4-36)]	> 5 µM	> 5 µM	–	–	> 5 µM	0.003 µM	–
CC(C)CC(=O)N[C@@H](C)C(=O)N1CCC[C@H]1C(=O)N[C@@H](CCC(=O)O)C(=O)N[C@@H](CCCCNC(=O)COCCOCCNC(=O)COCCOCCNC(=O)CC[C@H](NC(=O)CCCCCCCCCCCCCCCCC(=O)O)C(=O)O)C(=O)N1CCC[C@H]1C(=O)N[C@@H](CCC(=O)O)C(=O)N[C@@H](CCC(=O)O)C(=O)N[C@@H](CC(=O)O)C(=O)N[C@@H](C)C(=O)N[C@H](C(=O)N1CCC[C@H]1C(=O)N[C@@H](CCC(=O)O)C(=O)N[C@@H](CCC(=O)O)C(=O)N[C@@H](CC(C)C)C(=O)N[C@@H](CCC(N)=O)C(=O)N[C@@H](CCCCN)C(=O)N[C@@H](Cc1ccc(O)cc1)C(=O)N[C@@H](Cc1ccc(O)cc1)C(=O)N[C@H](C(=O)N[C@@H](CO)C(=O)N[C@@H](CC(C)C)C(=O)N[C@@H](CCCNC(=N)N)C(=O)N[C@@H](Cc1c[nH]cn1)C(=O)N[C@@H](Cc1ccc(O)cc1)C(=O)N[C@@H](Cc1ccc(O)cc1)C(=O)N[C@@H](CC(N)=O)C(=O)N[C@@H](Cc1c[nH]c2ccccc12)C(=O)N[C@@H](CC(C)C)C(=O)N[C@H](C(=O)N[C@@H](CCCNC(=N)N)C(=O)N[C@@H](CCC(N)=O)C(=O)N[C@@H](CCCNC(=N)N)C(=O)N[C@@H](Cc1ccc(O)cc1)C(N)=O)[C@@H](C)O)C(C)C)[C@@H](C)O [Compound 231, N{alpha-4}-(3-methylbutanoyl)-N{epsilon-7}-[2-(2-{2-[2-(2-{2-[(4S)-4-carboxy-4-(17-carboxyheptadecanamido)butanamido]ethoxy}ethoxy)acetamido]ethoxy}ethoxy)acetamido]-[4A,7K,9E,13T,18Q,19K,22V,28Y,30W,31L]hPYY (4-36)]	> 5 µM	> 5 µM	–	0.000107 µM	> 5 µM	–	0.00196 µM
